Measurements taken from patent US20260000656A1, “ANTIFUNGAL AGENTS WITH ENHANCED ACTIVITY IN ACIDIC PH” (Scynexis, Inc., priority 2017, published 2026).
Values after ≈ are worked out from the molar mass of the structure shown. Read-outs that look alike come from different tables or passages of the source.

Test system: C. albicans isolates
Test: Broth microdilution susceptibility (CLSI M27-A3) at different medium pH
Format: cell-based, Candida albicans
Details: Candida albicans, 24 h; for MIC50: read-out: MIC50; for MIC90: read-out: MIC90
Experimental: Ten strains each of C. glabrata and C. albicans vaginal isolates were tested. The strains were obtained from recent clinical trial patients with vulvovaginal candidiasis (VVC) prior to treatment. Candida strains were obtained from the Mycology Reference Library (MRL) at Case Western Reserve University School of Medicine, Ohio, United States.
Susceptibility testing was performed using a broth microdilution method, according to CLSI M27-A3 guidelines (CLSI. 2008. Reference Method for Broth Dilution Antifungal Susceptibility Testing of Yeasts; Approved Standard—Third Edition. Clinical and Laboratory Standards Institute, CLSI document M27-A3). Antifungals and concentrations tested were SCY-078 and micafungin (both at concentrations within the range of 0.015 to 8 μg/ml) and fluconazole (at concentrations within the range of 0.125 to 64 μg/ml). A 0.1-ml C. albicans and C. glabrata inoculum of 0.5-2.5×10^3 blastospores/ml in RPMI 1640 medium was added to each microdilution well. ATCC strains of Candida parapsilosis and Candida krusei QC isolates were also included concurrently to ensure quality control. Antifungal susceptibility testing was carried out for each isolate in RPMI 1640 at pH 7 (to mimic RPMI medium used in testing the susceptibility of yeast by the CLSI M-27A3 document), pH 5.7, and pH 4.5 (to mimic the pH of the vaginal cavity) by adjusting the pH of the media using NaOH or HCl. […] Agents Chemother., 43: 1383-1386 (1999).
[…] SCY-078 powder was manufactured by Avista, Laboratories, NC. Micafungin and fluconazole were sourced from LGM Pharma.

[1] = pH 7, 50% inhibition, pH 7.0, 24 h, 10 vaginal isolates
[2] = pH 7, 100% inhibition, pH 7.0, 24 hours, 10 isolates

CC(C)[C@@H](C)[C@@]1(C)CC[C@]2(C)[C@H]3CC[C@@H]4[C@@]5(COC[C@]4(C)[C@@H](OC[C@](C)(N)C(C)(C)C)[C@H](n4ncnc4-c4ccncc4)C5)C3=CC[C@@]2(C)[C@@H]1C(=O)O [SCY-078]
MIC (pH 5.72, C. albicans MRL 34372, pH 5.72, 24 hours, read-out: MIC (50% inhibition)): 0.25 µg/mL (≈ 0.342 µM)
MIC (pH 5.72, C. albicans MRL 34372, pH 5.72, 24 hours, read-out: MIC (100% inhibition)): 0.25 µg/mL (≈ 0.342 µM)
MIC (pH 5.72, C. albicans MRL 34373, pH 5.72, 24 hours, read-out: MIC (50% inhibition)): 0.25 µg/mL (≈ 0.342 µM)
MIC (pH 5.72, C. albicans MRL 34373, pH 5.72, 24 hours, read-out: MIC (100% inhibition)): 0.25 µg/mL (≈ 0.342 µM)
MIC (pH 5.72, C. albicans MRL 34374, pH 5.72, 24 hours, read-out: MIC (50% inhibition)): 0.125 µg/mL (≈ 0.171 µM)
MIC (pH 5.72, C. albicans MRL 34374, pH 5.72, 24 hours, read-out: MIC (100% inhibition)): 0.25 µg/mL (≈ 0.342 µM)
MIC (pH 5.72, C. albicans MRL 34385, pH 5.72, 24 hours, read-out: MIC (50% inhibition)): 0.25 µg/mL (≈ 0.342 µM)
MIC (pH 5.72, C. albicans MRL 34385, pH 5.72, 24 hours, read-out: MIC (100% inhibition)): 0.5 µg/mL (≈ 0.685 µM)
MIC (pH 5.72, C. albicans MRL 34389, pH 5.72, 24 hours, read-out: MIC (50% inhibition)): 0.25 µg/mL (≈ 0.342 µM)
MIC (pH 5.72, C. albicans MRL 34389, pH 5.72, 24 hours, read-out: MIC (100% inhibition)): 0.25 µg/mL (≈ 0.342 µM)
MIC (pH 5.72, C. albicans MRL 34399, pH 5.72, 24 hours, read-out: MIC (50% inhibition)): 0.25 µg/mL (≈ 0.342 µM)
MIC (pH 5.72, C. albicans MRL 34399, pH 5.72, 24 hours, read-out: MIC (100% inhibition)): 0.25 µg/mL (≈ 0.342 µM)
MIC (pH 5.72, C. albicans MRL 34408, pH 5.72, 24 hours, read-out: MIC (50% inhibition)): 0.25 µg/mL (≈ 0.342 µM)
MIC (pH 5.72, C. albicans MRL 34408, pH 5.72, 24 hours, read-out: MIC (100% inhibition)): 2 µg/mL (≈ 2.74 µM)
MIC (pH 5.72, C. albicans MRL 34449, pH 5.72, 24 hours, read-out: MIC (50% inhibition)): 0.25 µg/mL (≈ 0.342 µM)
MIC (pH 5.72, C. albicans MRL 34449, pH 5.72, 24 hours, read-out: MIC (100% inhibition)): 0.25 µg/mL (≈ 0.342 µM)
MIC50 [1]: 0.25 µg/mL (≈ 0.342 µM)
MIC90 [1]: 0.5 µg/mL (≈ 0.685 µM)
MIC50 [2]: 0.25 µg/mL (≈ 0.342 µM)
MIC90 [2]: 0.5 µg/mL (≈ 0.685 µM)
MIC (pH 7, C. albicans MRL 34366, pH 7.0, 24 hours, read-out: MIC (50% inhibition)): 0.5 µg/mL (≈ 0.685 µM)
MIC (pH 7, C. albicans MRL 34366, pH 7.0, 24 hours, read-out: MIC (100% inhibition)): 0.5 µg/mL (≈ 0.685 µM)
MIC (pH 7, C. albicans MRL 34367, pH 7.0, 24 hours, read-out: MIC (50% inhibition)): 0.125 µg/mL (≈ 0.171 µM)
MIC (pH 7, C. albicans MRL 34367, pH 7.0, 24 hours, read-out: MIC (100% inhibition)): 0.5 µg/mL (≈ 0.685 µM)
MIC (pH 7, C. albicans MRL 34372, pH 7.0, 24 hours, read-out: MIC (50% inhibition)): 0.25 µg/mL (≈ 0.342 µM)
MIC (pH 7, C. albicans MRL 34372, pH 7.0, 24 hours, read-out: MIC (100% inhibition)): 0.25 µg/mL (≈ 0.342 µM)
MIC (pH 7, C. albicans MRL 34373, pH 7.0, 24 hours, read-out: MIC (50% inhibition)): 0.25 µg/mL (≈ 0.342 µM)
MIC (pH 7, C. albicans MRL 34373, pH 7.0, 24 hours, read-out: MIC (100% inhibition)): 0.25 µg/mL (≈ 0.342 µM)
MIC (pH 7, C. albicans MRL 34374, pH 7.0, 24 hours, read-out: MIC (50% inhibition)): 0.25 µg/mL (≈ 0.342 µM)
MIC (pH 7, C. albicans MRL 34374, pH 7.0, 24 hours, read-out: MIC (100% inhibition)): 0.25 µg/mL (≈ 0.342 µM)
MIC (pH 7, C. albicans MRL 34385, pH 7.0, 24 hours, read-out: MIC (50% inhibition)): 0.25 µg/mL (≈ 0.342 µM)
MIC (pH 7, C. albicans MRL 34385, pH 7.0, 24 hours, read-out: MIC (100% inhibition)): 0.5 µg/mL (≈ 0.685 µM)
MIC (pH 7, C. albicans MRL 34389, pH 7.0, 24 hours, read-out: MIC (50% inhibition)): 0.125 µg/mL (≈ 0.171 µM)
MIC (pH 7, C. albicans MRL 34389, pH 7.0, 24 hours, read-out: MIC (100% inhibition)): 0.25 µg/mL (≈ 0.342 µM)
MIC (pH 7, C. albicans MRL 34399, pH 7.0, 24 hours, read-out: MIC (50% inhibition)): 0.25 µg/mL (≈ 0.342 µM)
MIC (pH 7, C. albicans MRL 34399, pH 7.0, 24 hours, read-out: MIC (100% inhibition)): 0.25 µg/mL (≈ 0.342 µM)
MIC (pH 7, C. albicans MRL 34408, pH 7.0, 24 hours, read-out: MIC (50% inhibition)): 0.5 µg/mL (≈ 0.685 µM)
MIC (pH 7, C. albicans MRL 34408, pH 7.0, 24 hours, read-out: MIC (100% inhibition)): 4 µg/mL (≈ 5.48 µM)
MIC (pH 7, C. albicans MRL 34449, pH 7.0, 24 hours, read-out: MIC (50% inhibition)): 0.25 µg/mL (≈ 0.342 µM)
MIC (pH 7, C. albicans MRL 34449, pH 7.0, 24 hours, read-out: MIC (100% inhibition)): 0.5 µg/mL (≈ 0.685 µM)
